Data published in patent US20190211317A1, “PEPTIDES AND NANOPARTICLES FOR INTRACELLULAR DELIVERY OF GENOME-EDITING MOLECULES” (Aadigen, LLC, priority 2016, published 2019).

Experiments:
[1] = test system: endogenous EMX1 gene in U2OS, HEPG2, K562 cells and primary human fibroblasts; experiment: EMX1 editing from CPP delivery of CAS9 mRNA/gRNA (T7E1); format: cell-based
Experimental: CPP/CAS9 mRNA/gRNA complexes were formed by mixing the CAS9 mRNA (0.5 μg) and gRNA (5 μg) with CPP at a 20:1 molar ratio of CPP:cargo and incubating for 30 min at 37° C. prior to cell transfection. Suspension and adherent cells were transfected according to the protocols described in Example 13a. RNAiMAX-mediated delivery (Invitrogen Thermo Fisher France) was used as a control. EMX1 gene editing was analyzed at day 3 and day 6 by T7E1 assay and quantified using a Fragment Analyzer System.

[2] = test system: E-Catenin gene in mouse muscle myoblast cells (C2C12); experiment: ü-Catenin gene disruption in C2C12 myoblasts (PCR gel); format: cell-based; settings: undifferentiated and differentiated C2C12
Experimental: Cells were transfected with CAS9/gRNA (2.5 μM/5 μM) complexes associated with CPP (+) or not (−) at a molar ratio of 20:1 (peptide to complex) and compared to delivery by RNAiMAX for E-Catenin expression. ü-actin expression was included as a loading control.
(§1) […] Delivery by RNAiMAX was included as a positive control.
(§2) CAS9-induced NHEJ was analyzed 72 hours after transfection by PCR (FIG. 26) and T7E1 assay (FIG. 27). The deletion (indel) frequencies in the HPRT gene were quantified using a T7E1 assay by quantifying the amount of uncut vs cut DNA using a Fragment Analyzer System. Data for on-target mutations induced by RGEN/gRNA are reported as an average of 3 separate experiments
(§3) The cell line was maintained in 5% CO2 at 37° C. and cell viability was assessed by the Trypan Blue exclusion test. To induce myogenic differentiation, at about 80% cell confluence the medium containing 10% fetal calf serum was substituted with medium containing 1% fetal calf serum. The cells were transfected at the undifferentiated stage or at day 7 after differentiation.

[3] = test system: endogenous EMX1 gene in U2OS, HEPG2, K562 cells and primary human fibroblasts; experiment: EMX1 editing from CPP delivery of CAS9 protein/gRNA (T7E1); format: cell-based; settings: each of the cell types tested; 2.5 μg/5 μg CAS9/gRNA
Experimental: CPP/CAS9/gRNA complexes were prepared by mixing preloaded CAS9/gRNA complexes (2.5 μg/5 μg CAS9/gRNA) with CPP peptides at a 20:1 molar ratio of CPP to cargo and incubating for 30 min at 37° C. prior to cell transfection. Cells were transfected according to the protocols described in Example 13a, and RNAiMAX-mediated delivery (Invitrogen Thermo Fisher France) was used as a control. EMX1 gene editing was analyzed at day 3 and day 6 by T7E1 assay and quantified using a Fragment Analyzer System.

[4] = test system: hPD1 gene in human T cells; experiment: hPD1 gene editing in primary human T cells (T7E1 assay); format: cell-based
Experimental: T cells were isolated from PBMCs (2 different donors) using anti-CD3/anti-CD28 antibodies bound to paramagnetic beads (Dynabeads ClinExVivo CD3/CD28, Invitrogen) at a ratio of 3:1 (beads:cells). The cells and beads were co-incubated for 2 hours at room temperature and CD3′ cell enrichment was performed using Dynal ClinExVIVO MPC magnet (Thermo Fisher). The anti-CD3/anti-CD28 paramagnetic beads were removed, washed and concentrated. Cells in the CD3′ fraction were resuspended in activation media at a concentration of 1×10^6 cells/ml with AIM-V medium (Thermo Fishers) supplemented with 10% fetal calf serum, 300 IU/ml IL2 and 50 ng/ml OKT3 (MuromonAB-CD3) for two days.
Cells were transfected by electroporation with CD-19 plasmid or gRNA/CAS9 (5 μg/10 μg) using a Nucleofector 2b (Lonza, Germany) with the Amaxa Human T cells Nucleofector Kit, VPA-1002 (Lonza, Germany). 5×10^6 cells were washed twice with DPBS by centrifuging at 800 rpm for 5 minutes and resuspended in 100 ^l transfection buffer, and then transferred into the electroporation cuvette. An optimized program selected for both high transfection and high efficiency on T cells was used. After electroporation, cells were resuspended in 500 ^l pre-warmed AIM-V medium containing 10% FBS and incubated at 37° C. in 5% CO2. The transfection efficiency was evaluated after 48 hr by flow cytometry or T7E1 assay.
As control, CAS9 loaded with gRNA targeting GFP was used.
Cells were returned to the incubator for 72 hours. CAS9-induced double-strand break followed by repair through non-homologous end joining (NHEJ) was analyzed by either the T7E1 assay or using the Genome Cleavage Detection kit (GCD Thermo Fisher) and quantified using Fragment Analyzer System. The indel frequency in the target gene was quantified using the T7E1 assay. The cultures were expanded and analyzed for viability and PD1 levels every 10 days. T cell expansion medium contained AIM V medium, supplemented with 5% heat-inactivated human AB Serum, 1% Gluta-Max, and 300 IU/mL IL-2.

[5] = test system: HPRT gene in mouse muscle myoblast cells (C2C12); experiment: HPRT gene editing in C2C12 myoblasts (T7E1 assay); format: cell-based
Experimental: as §1, §2, §3

Swiss mice = experiment: In vivo delivery of CAS9 mRNA by three CPPs: CAS9 expression in tissues (ELISA); design: species or system mouse
Experimental: Free CAS9 mRNA in physiological buffer was injected as a control.
At day 3, day 6, and day 10 following injection, animals were sacrificed and tissues including lung, liver, brain, kidney, heart, spleen, blood, pancreas, muscle, bone marrow, and intestine were collected. Tissues were homogenized and CAS9 protein levels in protein extracts were analyzed by ELISA using an antibody against CRISPR/Cas9 (SBI clone 7A9).

CC(C)C[C@H](NC(=O)[C@H](CCCNC(=N)N)NC(=O)[C@H](Cc1c[nH]c2ccccc12)NC(=O)[C@H](CCCNC(=N)N)NC(=O)[C@H](Cc1c[nH]c2ccccc12)NC(=O)CNC(=O)[C@H](C)NC(=O)[C@H](CO)NC(=O)[C@H](CCCNC(=N)N)NC(=O)[C@H](Cc1c[nH]c2ccccc12)NC(=O)[C@H](CCCCN)NC(=O)CCN)C(=O)N[C@@H](Cc1c[nH]c2ccccc12)C(=O)N[C@@H](CCCNC(=N)N)C(=O)N[C@H](C(=O)N[C@@H](CCCNC(=N)N)C(=O)N[C@@H](CO)C(=O)N[C@@H](Cc1c[nH]c2ccccc12)C(=O)N[C@@H](CO)C(=O)N[C@@H](CCCNC(=N)N)C(=O)O)C(C)C [ADGN-100a]
mean indel frequencies [1]: about 60%
editing of ü-Catenin and HPRT genes [2]: robust editing
mean indel frequencies [3]: 60-65%
Mean indel Frequency ± s.e.m ([4]; Donor 1, CAS9/sgRNA 2.5 μg/5 μg): 48 ± 6%
Mean indel Frequency ± s.e.m ([4]; Donor 1, CAS9/sgRNA 5 μg/10 μg): 56 ± 4%
Mean indel Frequency ± s.e.m ([4]; Donor 2, CAS9/sgRNA 2.5 μg/5 μg): 52 ± 5%
Mean indel Frequency ± s.e.m ([4]; Donor 2, CAS9/sgRNA 5 μg/10 μg): 61 ± 8%
mean indel frequency of hPD1 gene ([4]; T cells from the two donors, 5 μg/10 μg CAS9/gRNA): 58%
mean indel frequency ([5]; differentiated C2C12): 47%
mean indel frequency ([5]; undifferentiated C2C12, 5 μg/10 μg CAS9/gRNA, 20:1): 79%
CAS9 expression (Swiss mice; day 10, liver): CAS9 expression was observed
ELISA signal for CAS9 protein expression (Swiss mice; liver, day 3 and day 6, CAS9 mRNA 5 μg i.v., 20:1): greater than 20 times that of background
CAS9 protein expression (Swiss mice; other tissues examined): Little to no increase
